Measurements published in patent publication US11759509B2, “WT1 antigen peptide conjugate vaccine” (Sumitomo Pharma Co., Ltd., priority 2013, dated 2023).
Positions of bridges follow the written chain, without caps; N, C: chain ends. Residues, ends and D or L forms follow the SMILES beside them. Chains are numbered I, II in the order given. No end group written: not given here.

What was measured:
physchem = settings: for solubility at 90 min: pH 6; for solubility thermodynamic at 90 min: pH 7.4
Description: Measurement of Solubility
(§1) 75% aqueous solution of disodium hydrogen phosphate and 5.53% aqueous solution of citric acid were mixed, and respective buffers (pH 6.0 and 7.4) were prepared.
(§2) About 1 mg of a test product was measured, an isotonic buffer (0.5 mL) was added, and this was used as a test solution. The prepared test solution was shaken at room temperature for 90 min (shaking conditions: RECIPRO SHAKER SR-1N manufactured by TAITEC, Speed=8), centrifuged (15000 rpm, 5 min, room temperature), and the supernatant after centrifugation was used as a test solution.
(§3) About 1 mg of the test product was accurately measured, dissolved in 0.1% TFA water/acetonitrile=1/1, made the total amount 10 mL, and this was used as a standard solution of the test product.
(§4) The standard solution of the test product and the test solution were analyzed by HPLC (analysis conditions described in Table 59), and the solubility of the test product was calculated from the peak area ratio of the standard solution.
(§5) • column: ChemcoPack Quicksorb (4.6 mmφ×150 mm, 5 μm) manufactured by Chemco Scientific Co., Ltd. • mobile phase: SOLUTION A; 0.1% TFA water, SOLUTION B; 0.1% TFA acetonitrile solution • column temperature: room temperature • flow rate: 1 mL/min • detection wavelength: UV 254 nm, 230 nm (2 wavelength detection) • sample injection volume: 10 μL

ERAP1 = ERAP1 (Homo sapiens, UniProt Q9NZ08); test: Time-course changes of trimming of N-terminal amino acid by ERAP1; assay type: biochemical; settings: room temperature
Description: Time-Course Changes of Trimming of N-Terminal Amino Acid by ERAP1
30 μl of ERAP1 (2.0 mg/ml) in PBS buffer solution was added to 258 μl of Tris·HCl buffer. DMSO solution (12.0 μl) of 10 mM each peptide was added to the aforementioned ERAP1 solution, and the mixture was blended well and stood at room temperature. 1.0, 2.0, 4.0, 8.0 hr later, 50 μl of a sample was added to 150 μl of MeOH to terminate the reaction, 25 μl was injected into UFLC (analysis conditions shown below), and AUC of the object peptide was determined. […] Concentration of SOLUTION B was raised from 1.0% to 70% from 0.0 min to 5.0 min • 2. Concentration of SOLUTION B was raised from 1.0% to 50% from 0.0 min to 5.0 min • object peptide: […]

[1] = Measurement of solubility in isotonic buffer (pH 6.0 and 7.4); settings: isotonic disodium hydrogen phosphate/citric acid buffer
Description: Measurement of Solubility
as §1, §2, §3, §4, §5

Sequence of ERAP1 (Q9NZ08 whole entry): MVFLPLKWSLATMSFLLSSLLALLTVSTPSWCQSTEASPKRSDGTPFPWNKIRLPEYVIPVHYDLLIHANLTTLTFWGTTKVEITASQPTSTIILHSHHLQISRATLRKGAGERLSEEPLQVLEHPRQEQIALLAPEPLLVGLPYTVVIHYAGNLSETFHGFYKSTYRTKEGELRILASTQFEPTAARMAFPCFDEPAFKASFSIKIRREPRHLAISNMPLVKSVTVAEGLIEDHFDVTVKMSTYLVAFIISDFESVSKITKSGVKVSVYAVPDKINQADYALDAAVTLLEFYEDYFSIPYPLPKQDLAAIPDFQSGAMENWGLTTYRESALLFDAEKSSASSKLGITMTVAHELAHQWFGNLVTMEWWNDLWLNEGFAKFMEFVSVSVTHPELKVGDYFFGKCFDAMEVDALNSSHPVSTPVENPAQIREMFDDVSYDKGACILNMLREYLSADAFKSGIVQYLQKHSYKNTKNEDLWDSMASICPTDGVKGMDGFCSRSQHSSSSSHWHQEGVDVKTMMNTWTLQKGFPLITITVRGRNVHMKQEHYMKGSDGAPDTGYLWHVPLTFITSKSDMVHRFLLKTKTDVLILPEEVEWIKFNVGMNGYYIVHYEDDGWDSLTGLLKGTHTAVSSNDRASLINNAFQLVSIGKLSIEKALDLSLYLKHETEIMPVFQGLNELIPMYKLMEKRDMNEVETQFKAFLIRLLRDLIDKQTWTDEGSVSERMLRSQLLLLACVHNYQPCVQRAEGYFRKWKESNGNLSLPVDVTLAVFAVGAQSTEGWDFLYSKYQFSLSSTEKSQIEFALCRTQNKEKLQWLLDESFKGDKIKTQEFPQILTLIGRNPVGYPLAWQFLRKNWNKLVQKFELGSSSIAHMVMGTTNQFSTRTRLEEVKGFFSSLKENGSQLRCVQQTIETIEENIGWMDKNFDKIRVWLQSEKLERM

Row | Compound | solubility at 90 min (physchem) [µg/mL] | solubility thermodynamic at 90 min (physchem) [µg/mL] | also measured
1 | CSCC[C@H](NC(=O)[C@H](CCC(N)=O)NC(=O)[C@H](CC(N)=O)NC(=O)[C@H](Cc1c[nH]c2ccccc12)NC(=O)[C@@H](NC(=O)[C@H](Cc1ccc(O)cc1)NC(=O)[C@@H](N)CSSC[C@H](N)C(=O)N[C@@H](CCCNC(=N)N)C(=O)N[C@@H](CCSC)C(=O)N[C@@H](Cc1ccccc1)C(=O)N1CCC[C@H]1C(=O)N[C@@H](CC(N)=O)C(=O)N[C@@H](C)C(=O)N1CCC[C@H]1C(=O)N[C@@H](Cc1ccc(O)cc1)C(=O)N[C@@H](CC(C)C)C(=O)O)[C@@H](C)O)C(=O)N[C@@H](CC(N)=O)C(=O)N[C@@H](CC(C)C)C(=O)O [formula (5)] (I: H-CRMFPNAPYL-OH / II: H-CYTWNQMNL-OH; disulfide I:1-II:1) | 511 | 200 | –
2 | CSCC[C@H](NC(=O)[C@@H](N)CCCNC(=N)N)C(=O)N[C@@H](Cc1ccccc1)C(=O)N1CCC[C@H]1C(=O)N[C@@H](CC(N)=O)C(=O)N[C@@H](C)C(=O)N1CCC[C@H]1C(=O)N[C@@H](Cc1ccc(O)cc1)C(=O)N[C@@H](CC(C)C)C(=O)O [SEQ ID NO: 2] | > 1000 | > 1000 | –
3 | CNKRYFKLSHLQMHSRKHTG [SEQ ID NO: 24] | > 1000 | 556 | –
4 | CSCC[C@H](NC(=O)[C@H](CCC(N)=O)NC(=O)[C@H](CC(C)C)NC(=O)[C@H](Cc1c[nH]cn1)NC(=O)[C@H](CO)NC(=O)[C@H](CC(C)C)NC(=O)[C@H](CCCCN)NC(=O)[C@H](Cc1ccccc1)NC(=O)[C@H](Cc1ccc(O)cc1)NC(=O)[C@H](CCCNC(=N)N)NC(=O)[C@H](CCCCN)NC(=O)[C@H](CC(N)=O)NC(=O)[C@@H](N)CSSC[C@H](N)C(=O)N[C@@H](CCCNC(=N)N)C(=O)N[C@@H](CCSC)C(=O)N[C@@H](Cc1ccccc1)C(=O)N1CCC[C@H]1C(=O)N[C@@H](CC(N)=O)C(=O)N[C@@H](C)C(=O)N1CCC[C@H]1C(=O)N[C@@H](Cc1ccc(O)cc1)C(=O)N[C@@H](CC(C)C)C(=O)O)C(=O)N[C@@H](Cc1c[nH]cn1)C(=O)N[C@@H](CO)C(=O)N[C@@H](CCCNC(=N)N)C(=O)N[C@@H](CCCCN)C(=O)O [formula (8)] (I: H-CNKRYFKLSHLQMHSRK-OH / II: H-CRMFPNAPYL-OH; disulfide I:1-II:1) | > 1000 | 789 | –
5 | CALLPAVPSL [Example 3] | – | – | formation rate (%) of the peptide obtained by trimming, 1 hr later (ERAP1): 65.5%; formation rate (%) of the peptide obtained by trimming, 2 hr later (ERAP1): 50.6%; formation rate (%) of the peptide obtained by trimming, 4 hr later (ERAP1): 13.5%; formation rate (%) of the peptide obtained by trimming, 8 hr later (ERAP1): 0%
6 | ALLPAVPSL [SEQ ID NO: 5] | > 1000 | > 1000 | –
7 | CSCC[C@H](NC(=O)[C@H](CCCNC(=N)N)NC(=O)[C@@H](N)CSSC[C@H](N)C(=O)N[C@@H](CO)C(=O)N[C@@H](CC(C)C)C(=O)NCC(=O)N[C@@H](CCC(=O)O)C(=O)N[C@@H](CCC(N)=O)C(=O)N[C@@H](CCC(N)=O)C(=O)N[C@@H](Cc1ccc(O)cc1)C(=O)N[C@@H](CO)C(=O)N[C@H](C(=O)O)C(C)C)C(=O)N[C@@H](Cc1ccccc1)C(=O)N1CCC[C@H]1C(=O)N[C@@H](CC(N)=O)C(=O)N[C@@H](C)C(=O)N1CCC[C@H]1C(=O)N[C@@H](Cc1ccc(O)cc1)C(=O)N[C@@H](CC(C)C)C(=O)O [formula (3)] (I: H-CRMFPNAPYL-OH / II: H-CSLGEQQYSV-OH; disulfide I:1-II:1) | > 1000 | > 1000 | –
8 | CNKRYFKLSHLQMHSRKH [SEQ ID NO: 23] | > 1000 | 712 | –
9 | CSCC[C@H](NC(=O)[C@H](CCC(N)=O)NC(=O)[C@H](CC(C)C)NC(=O)[C@H](Cc1c[nH]cn1)NC(=O)[C@H](CO)NC(=O)[C@H](CC(C)C)NC(=O)[C@H](CCCCN)NC(=O)[C@H](Cc1ccccc1)NC(=O)[C@H](Cc1ccc(O)cc1)NC(=O)[C@H](CCCNC(=N)N)NC(=O)[C@H](CCCCN)NC(=O)[C@H](CC(N)=O)NC(=O)[C@@H](N)CSSC[C@H](N)C(=O)N[C@@H](C)C(=O)N[C@@H](CC(C)C)C(=O)N[C@@H](CC(C)C)C(=O)N1CCC[C@H]1C(=O)N[C@@H](C)C(=O)N[C@H](C(=O)N1CCC[C@H]1C(=O)N[C@@H](CO)C(=O)N[C@@H](CC(C)C)C(=O)O)C(C)C)C(=O)N[C@@H](Cc1c[nH]cn1)C(=O)N[C@@H](CO)C(=O)N[C@@H](CCCNC(=N)N)C(=O)N[C@@H](CCCCN)C(=O)N[C@@H](Cc1c[nH]cn1)C(=O)N[C@H](C(=O)NCC(=O)O)[C@@H](C)O [formula (9)] (I: H-CNKRYFKLSHLQMHSRKHTG-OH / II: H-CALLPAVPSL-OH; disulfide I:1-II:1) | > 1000 | 565 | –
10 | SLGEQQYSV [SEQ ID NO: 6] | > 1000 | > 1000 | –
11 | CNKRYFKLSHLQMHSRK [SEQ ID NO: 22] | > 1000 | 931 | –
12 | CRVPGVAPTL [Example 4] | – | – | formation rate (%) of the peptide obtained by trimming, 1 hr later (ERAP1): 59.1%; formation rate (%) of the peptide obtained by trimming, 2 hr later (ERAP1): 57.5%; formation rate (%) of the peptide obtained by trimming, 4 hr later (ERAP1): 30.1%; formation rate (%) of the peptide obtained by trimming, 8 hr later (ERAP1): 7.80%
13 | CSLGEQQYSV [Example 5] | – | – | formation rate (%) of the peptide obtained by trimming, 1 hr later (ERAP1): 77.6%; formation rate (%) of the peptide obtained by trimming, 2 hr later (ERAP1): 72.8%; formation rate (%) of the peptide obtained by trimming, 4 hr later (ERAP1): 46.0%; formation rate (%) of the peptide obtained by trimming, 8 hr later (ERAP1): 7.90%
14 | CSCC[C@H](NC(=O)[C@H](CCC(N)=O)NC(=O)[C@H](CC(C)C)NC(=O)[C@H](Cc1c[nH]cn1)NC(=O)[C@H](CO)NC(=O)[C@H](CC(C)C)NC(=O)[C@H](CCCCN)NC(=O)[C@H](Cc1ccccc1)NC(=O)[C@H](Cc1ccc(O)cc1)NC(=O)[C@H](CCCNC(=N)N)NC(=O)[C@H](CCCCN)NC(=O)[C@H](CC(N)=O)NC(=O)[C@@H](N)CSSC[C@H](N)C(=O)N[C@@H](CCCNC(=N)N)C(=O)N[C@@H](CCSC)C(=O)N[C@@H](Cc1ccccc1)C(=O)N1CCC[C@H]1C(=O)N[C@@H](CC(N)=O)C(=O)N[C@@H](C)C(=O)N1CCC[C@H]1C(=O)N[C@@H](Cc1ccc(O)cc1)C(=O)N[C@@H](CC(C)C)C(=O)O)C(=O)N[C@@H](Cc1c[nH]cn1)C(=O)N[C@@H](CO)C(=O)N[C@@H](CCCNC(=N)N)C(=O)N[C@@H](CCCCN)C(=O)N[C@@H](Cc1c[nH]cn1)C(=O)N[C@H](C(=O)NCC(=O)O)[C@@H](C)O [formula (6)] (I: H-CNKRYFKLSHLQMHSRKHTG-OH / II: H-CRMFPNAPYL-OH; disulfide I:1-II:1) | > 1000 | 279 | –
15 | CYTWNQMNL [SEQ ID NO: 4] | – | – | solubility at 90 min ([1]; pH 6): 106 µg/mL; solubility thermodynamic at 90 min ([1]; pH 7.4): 167 µg/mL
